Measurements: paper PMC3909768 (Journal of Cancer, 2014)
Several values for one entry are separate records, joined by “and”; a condition that tells them apart may be missing. Equal entries are not always repeated.

Columns and labels:
[1] = Plasma protein binding by equilibrium dialysis, rat; type: in vitro ADME; details: Rats plasma, 1 uM, equilibrium dialysis 4h 37C
[2] = Brain and prostate distribution after single IV in rats; details: rat, in vivo, 2 mg/kg; for concentration at 30 min / concentration at 120 min: single IV 2 mg/kg
[3] = Drug concentration in plasma and xenograft tumor after 21-day dosing; details: male, CB17-SCID, mouse, in vivo
[4] = Plasma protein binding by equilibrium dialysis, dog; type: in vitro ADME; details: Dogs plasma, 1 uM, equilibrium dialysis 4h 37C
[5] = system: CYP3A; assay: CYP3A induction in human hepatocytes; type: in vitro ADME; details: for CYP3A induction, in words: 1uM; for CYP 3A induction, Positive control, %: human hepatocytes, 48 hours
[6] = Plasma protein binding by equilibrium dialysis, human; type: in vitro ADME; details: 1 uM, equilibrium dialysis 4h 37C
[7] = system: LnCaP-Z2 tumors; assay: LnCaP-Z2 xenograft antitumor efficacy; type: in vivo, male CB17-SCID mice
[8] = Rat pharmacokinetics; details: for C24h: after 14 administrations; for AUC(0-inf) / k el / MRT inf / concentration at 24 h / Cmax / Tmax / half-life: male, Sprague Dawley, rat, in vivo
[9] = biological target: CYP 2C19 (Homo sapiens, UniProt P33261); assay: CYP inhibition; type: in vitro ADME; details: concentrations up to 10 uM
[10] = biological target: T1, AR (Homo sapiens, UniProt P10275); type: cell-based
T1 sequence (P10275 1-920): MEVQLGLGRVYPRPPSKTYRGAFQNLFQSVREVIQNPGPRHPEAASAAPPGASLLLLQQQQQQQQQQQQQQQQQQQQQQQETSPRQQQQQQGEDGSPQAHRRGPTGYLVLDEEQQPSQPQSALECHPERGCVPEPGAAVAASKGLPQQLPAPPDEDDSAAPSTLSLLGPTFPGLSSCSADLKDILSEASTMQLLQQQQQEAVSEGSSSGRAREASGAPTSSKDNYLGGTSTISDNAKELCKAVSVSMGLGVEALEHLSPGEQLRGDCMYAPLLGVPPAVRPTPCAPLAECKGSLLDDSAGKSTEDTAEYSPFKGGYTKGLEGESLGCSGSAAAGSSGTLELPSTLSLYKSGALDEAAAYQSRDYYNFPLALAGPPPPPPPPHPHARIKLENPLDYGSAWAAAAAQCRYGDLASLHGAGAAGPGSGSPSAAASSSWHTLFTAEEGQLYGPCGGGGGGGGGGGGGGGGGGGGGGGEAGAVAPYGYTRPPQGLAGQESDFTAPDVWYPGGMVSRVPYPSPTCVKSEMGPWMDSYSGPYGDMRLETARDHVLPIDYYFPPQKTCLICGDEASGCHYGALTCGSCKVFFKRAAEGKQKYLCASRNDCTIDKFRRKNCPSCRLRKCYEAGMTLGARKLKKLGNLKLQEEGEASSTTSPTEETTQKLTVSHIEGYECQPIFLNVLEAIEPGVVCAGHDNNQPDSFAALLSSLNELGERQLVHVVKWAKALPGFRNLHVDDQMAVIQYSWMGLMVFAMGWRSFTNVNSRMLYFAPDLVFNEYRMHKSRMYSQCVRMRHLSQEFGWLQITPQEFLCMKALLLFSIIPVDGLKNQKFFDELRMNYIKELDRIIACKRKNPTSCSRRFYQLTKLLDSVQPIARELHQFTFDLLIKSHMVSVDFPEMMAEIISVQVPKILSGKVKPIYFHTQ

[11] = system: androgen-dependent reproductive organs; assay: Weight of androgen-dependent reproductive organs in rats, 14 days; type: in vivo, male rats; details: 30, 100 and 300 mg/kg/day po
[12] = biological target: T2, AR-LBD (Homo sapiens, UniProt P10275); assay: biochemical
T2 sequence (P10275 669-900 limits assumed): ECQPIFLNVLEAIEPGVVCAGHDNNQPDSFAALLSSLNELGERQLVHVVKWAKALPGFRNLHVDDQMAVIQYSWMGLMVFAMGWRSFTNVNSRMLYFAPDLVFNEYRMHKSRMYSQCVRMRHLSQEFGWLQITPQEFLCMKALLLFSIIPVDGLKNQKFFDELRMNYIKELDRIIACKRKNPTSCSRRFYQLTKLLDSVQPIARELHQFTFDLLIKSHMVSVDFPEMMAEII

[13] = system: spermatozoon in epididymis; assay: Concentration of spermatozoon in epididymis of rats, 60 days; type: in vivo, male rats; details: n=6
[14] = biological target: CYP 2D6 (Homo sapiens, UniProt P10635); assay: CYP inhibition; type: in vitro ADME; details: concentrations up to 10 uM
[15] = biological target: T3, CYP 1A2 (Homo sapiens, UniProt P05177); assay: CYP inhibition; type: in vitro ADME; details: concentrations up to 10 uM
T3 sequence (P05177 1-516): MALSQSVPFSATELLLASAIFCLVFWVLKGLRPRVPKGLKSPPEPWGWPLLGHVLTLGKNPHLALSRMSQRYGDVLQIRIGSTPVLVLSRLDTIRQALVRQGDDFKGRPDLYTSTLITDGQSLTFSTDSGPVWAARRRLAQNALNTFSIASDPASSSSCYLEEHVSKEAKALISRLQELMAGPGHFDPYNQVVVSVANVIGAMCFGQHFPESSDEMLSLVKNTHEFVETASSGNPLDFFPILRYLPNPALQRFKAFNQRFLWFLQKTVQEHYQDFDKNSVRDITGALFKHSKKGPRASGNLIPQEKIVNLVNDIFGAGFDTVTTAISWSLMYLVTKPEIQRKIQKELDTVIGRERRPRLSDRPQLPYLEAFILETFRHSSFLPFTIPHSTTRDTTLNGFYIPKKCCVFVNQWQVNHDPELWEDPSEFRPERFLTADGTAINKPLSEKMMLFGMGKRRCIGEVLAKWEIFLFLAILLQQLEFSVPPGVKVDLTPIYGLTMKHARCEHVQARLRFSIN

[16] = Plasma protein binding by equilibrium dialysis, mouse; type: in vitro ADME; details: Mice plasma, 1 uM, equilibrium dialysis 4h 37C
[17] = system: GABA receptors; assay: [3H]GABA binding, rat cerebral cortex membranes; details: 10uM
[18] = system: AR-dependent PSA expression in prostate cancer cells LnCAP; assay: DHT-induced PSA expression in LnCAP cells; type: cell-based
[19] = biological target: CYP 3A4 (Homo sapiens, UniProt P08684); assay: CYP inhibition; type: in vitro ADME; details: concentrations up to 10 uM
[20] = Dog pharmacokinetics; type: in vivo, male beagle dogs; details: multiple oral doses in dogs
[21] = biological target: CYP 2C9 (Homo sapiens, UniProt P11712); assay: CYP inhibition; type: in vitro ADME; details: concentrations up to 10 uM
Chain of CYP 2C9 (P11712 whole entry): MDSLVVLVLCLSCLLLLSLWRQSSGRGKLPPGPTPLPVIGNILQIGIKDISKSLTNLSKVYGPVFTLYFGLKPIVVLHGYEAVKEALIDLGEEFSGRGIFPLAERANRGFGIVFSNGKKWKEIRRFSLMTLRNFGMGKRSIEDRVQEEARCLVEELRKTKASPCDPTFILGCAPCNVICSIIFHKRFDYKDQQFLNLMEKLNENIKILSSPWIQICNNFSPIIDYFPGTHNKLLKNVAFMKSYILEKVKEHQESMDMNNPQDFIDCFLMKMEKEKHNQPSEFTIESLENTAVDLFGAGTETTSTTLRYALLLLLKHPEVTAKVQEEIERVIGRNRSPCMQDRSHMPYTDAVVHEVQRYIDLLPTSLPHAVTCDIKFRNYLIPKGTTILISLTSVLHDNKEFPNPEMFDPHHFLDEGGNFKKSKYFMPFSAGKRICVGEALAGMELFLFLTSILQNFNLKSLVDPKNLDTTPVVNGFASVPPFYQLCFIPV

Chain of CYP 2D6 (P10635 whole entry): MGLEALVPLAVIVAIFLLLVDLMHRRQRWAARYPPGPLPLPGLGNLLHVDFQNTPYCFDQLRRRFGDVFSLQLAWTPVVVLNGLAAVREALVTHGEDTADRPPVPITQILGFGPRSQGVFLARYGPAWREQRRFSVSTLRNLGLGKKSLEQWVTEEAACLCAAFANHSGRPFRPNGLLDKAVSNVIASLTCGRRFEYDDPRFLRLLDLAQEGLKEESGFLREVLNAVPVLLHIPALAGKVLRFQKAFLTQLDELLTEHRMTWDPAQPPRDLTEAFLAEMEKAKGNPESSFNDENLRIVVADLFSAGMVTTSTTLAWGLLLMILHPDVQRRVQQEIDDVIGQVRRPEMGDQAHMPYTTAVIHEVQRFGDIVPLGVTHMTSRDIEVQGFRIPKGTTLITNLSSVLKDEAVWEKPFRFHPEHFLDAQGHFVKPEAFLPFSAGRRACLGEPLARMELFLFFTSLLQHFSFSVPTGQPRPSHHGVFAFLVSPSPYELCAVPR
Chain of CYP 2C19 (P33261 whole entry): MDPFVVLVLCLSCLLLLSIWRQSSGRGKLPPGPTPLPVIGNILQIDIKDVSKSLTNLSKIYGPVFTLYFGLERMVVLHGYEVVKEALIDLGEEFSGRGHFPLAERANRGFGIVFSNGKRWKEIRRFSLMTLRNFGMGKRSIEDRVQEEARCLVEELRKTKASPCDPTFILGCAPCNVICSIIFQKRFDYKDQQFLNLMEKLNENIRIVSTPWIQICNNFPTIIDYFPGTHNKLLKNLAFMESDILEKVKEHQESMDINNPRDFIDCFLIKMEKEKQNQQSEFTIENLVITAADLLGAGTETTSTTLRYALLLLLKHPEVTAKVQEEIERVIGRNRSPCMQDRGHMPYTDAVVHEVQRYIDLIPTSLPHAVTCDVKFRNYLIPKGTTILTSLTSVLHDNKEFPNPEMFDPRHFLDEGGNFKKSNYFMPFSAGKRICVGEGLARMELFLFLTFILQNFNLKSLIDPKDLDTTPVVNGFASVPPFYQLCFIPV
Chain of CYP 3A4 (P08684 whole entry): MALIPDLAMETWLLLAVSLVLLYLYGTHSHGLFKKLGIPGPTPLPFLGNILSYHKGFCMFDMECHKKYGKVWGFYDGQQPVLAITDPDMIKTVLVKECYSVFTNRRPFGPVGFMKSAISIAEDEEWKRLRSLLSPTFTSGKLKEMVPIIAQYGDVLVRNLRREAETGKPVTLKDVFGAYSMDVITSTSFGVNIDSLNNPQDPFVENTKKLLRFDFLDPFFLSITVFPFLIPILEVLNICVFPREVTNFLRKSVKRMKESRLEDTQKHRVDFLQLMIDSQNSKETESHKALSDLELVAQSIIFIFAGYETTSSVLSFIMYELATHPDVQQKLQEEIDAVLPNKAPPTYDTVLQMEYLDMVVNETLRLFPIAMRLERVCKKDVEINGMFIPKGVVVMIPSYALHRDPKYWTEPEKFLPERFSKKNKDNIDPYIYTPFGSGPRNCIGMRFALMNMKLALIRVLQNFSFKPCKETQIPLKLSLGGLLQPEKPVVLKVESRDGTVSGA

CNC(=O)c1ccc(N2C(=S)N(c3ccc(C#N)c(C(F)(F)F)c3)C(=O)C2(C)C)cc1F [MDV3100]
Bound fraction [1]: 96.4%
Kp at 30 min [2]: 0.39 ± 0.03
Kp at 120 min [2]: 0.33 ± 0.16
concentration at 30 min ([2]; Prostate): 102 ± 4 ng/g
concentration at 120 min ([2]; Prostate): 124 ± 27 ng/g
concentration at 30 min ([2]; brain): 164 ± 19 ng/g
concentration at 120 min ([2]; brain): 152 ± 31 ng/g
concentration at 30 min ([2]; plasma): 263 ± 19 ng/mL
concentration at 120 min ([2]; plasma): 377 ± 153 ng/mL
Kp at 24 h ([3]; 10 mg/kg): 0.53 ± 0.15
Bound fraction [4]: 97.3%
CYP3A induction, in words [5]: still active
CYP 3A induction, Positive control, % ([5]; 1 uM): 10.0±2.0%
CYP 3A induction, Positive control, % ([5]; 10 uM): 73.3±6.8%
Bound fraction [6]: 98.4%

CNC(=O)c1ccc(N2C(=S)N(c3ccc(C#N)c(C(F)(F)F)c3)C(=O)[C@]23CCOC3)cc1F [ONC1-13B, 4-[(R)-3-(4-Cyano-3-trifluoromethyl-phenyl)-4-oxo-2-thioxo-7-oxa-1,3-diaza-spiro[4.4]non-1-yl]-2-fluoro-N-methyl-benzamide]
antitumor efficacy, in words ([7]; 20 mg/kg twice daily): highest antitumor efficacy
tumors regressed ([7]; 20 mg/kg twice daily po, 21 days): 4 of 8
antitumor efficacy, in words ([7]; once daily at 20 or 50 mg/kg, vs MDV3100 10mg/kg once daily): comparable to MDV3100
C24h ([8]; Multiple PO 100 mg/kg): 2 794 ng/mL
C24h ([8]; Multiple PO 300 mg/kg): 2 122 ng/mL
Vss_obs ([8]; Single IV 1 mg/kg): 2.0 L/kg
Сl ([8]; Single IV 1 mg/kg): 6.4 mL/min/kg
AUC(0-inf) ([8]; iv, 1 mg/kg): 2.57 µg·h/mL
k el ([8]; iv, 1 mg/kg): 4.64e-05 s⁻¹
MRT inf ([8]; po, 5 mg/kg): 7 h
concentration at 24 h ([8]; po, 5 mg/kg): 51 ng/mL
k el ([8]; po, 5 mg/kg): 3.61e-05 s⁻¹
AUC(0-inf) ([8]; po, 30 mg/kg): 95 µg·h/mL
Cmax ([8]; po, 30 mg/kg): 7160 ng/mL
MRT inf ([8]; po, 30 mg/kg): 4 h
Tmax ([8]; po, 30 mg/kg): 4 h
concentration at 24 h ([8]; po, 30 mg/kg): 159 ng/mL
half-life ([8]; po, 30 mg/kg): 4 h
k el ([8]; po, 30 mg/kg): 5.28e-05 s⁻¹
AUC(0-inf) ([8]; po, 100 mg/kg): 268 µg·h/mL
Cmax ([8]; po, 100 mg/kg): 16400 ng/mL
MRT inf ([8]; po, 100 mg/kg): 10 h
Tmax ([8]; po, 100 mg/kg): 4 h
half-life ([8]; po, 100 mg/kg): 8 h
k el ([8]; po, 100 mg/kg): 2.5e-05 s⁻¹
AUC(0-inf) ([8]; po, 300 mg/kg): 314 µg·h/mL
Cmax ([8]; po, 300 mg/kg): 20500 ng/mL
MRT inf ([8]; po, 300 mg/kg): 7 h
Tmax ([8]; po, 300 mg/kg): 4 h
half-life ([8]; po, 300 mg/kg): 6 h
k el ([8]; po, 300 mg/kg): 3.06e-05 s⁻¹
Bound fraction [1]: 89.7%
inhibition of CYP 2C19 activity [9]: doesn`t inhibit
inhibition of 6a-Fluotestosterone induced AR nuclear translocation, in words [10]: completely inhibit
weight of prostate, epididymis and seminal vesicles, in words [11]: significantly and dose-dependently decreases
Kp [2]: 1.2 to 1.6
Kp at 30 min [2]: 1.55 ± 0.08
Kp at 120 min [2]: 1.2 ± 0.36
concentration at 30 min ([2]; Prostate): 1160 ± 164 ng/g
concentration at 120 min ([2]; Prostate): 625 ± 108 ng/g
concentration at 30 min ([2]; brain): 145 ± 22 ng/g
concentration at 120 min ([2]; brain): 89 ± 10 ng/g
concentration at 30 min ([2]; plasma): 746 ± 104 ng/mL
concentration at 120 min ([2]; plasma): 522 ± 57 ng/mL
IC50 [12]: 19.9 µM
Kp at 24 h ([3]; 20 mg/kg): 0.78 ± 0.08
concentration at 24 h ([3]; 20 mg/kg): 76.2 ng/mL and 52.6 ng/g
Kp at 24 h ([3]; 50 mg/kg): 0.77 ± 0.13
concentration at 24 h ([3]; 50 mg/kg): 154 ng/mL and 138 ng/g
Kp at 16 h ([3]; po, 20 mg/kg): 0.72 ± 0.05
concentration at 16 h ([3]; po, 20 mg/kg): 456 ng/mL and 442 ng/g
Concentration of spermatozoon in epididymis, M±m ([13]; 30 mg/kg po): 29,00 ± 2,73 х 10^6/ml
Concentration of spermatozoon in epididymis, M±m ([13]; 300 mg/kg po): 16,00 ± 2,37 х 10^6/ml
inhibition of CYP 2D6 activity [14]: doesn`t inhibit
inhibition of CYP 1A2 activity [15]: doesn`t inhibit
Bound fraction [16]: 90.7%
Bound fraction [4]: 89.5%
inhibition of [3H]GABA specific binding [17]: 42%
CYP3A induction, in words [5]: no activity
CYP 3A induction, Positive control, % ([5]; 1 uM, listed as ONC1-0013B): 0.0±2.0% and 3.3±0.6%
fold less potent in CYP3A induction compared to MDV3100 and ARN-509 ([5]; 10uM): ~ 2 fold
CYP 3A induction, Positive control, % ([5]; 10 uM, listed as ONC1-0013B): 51.3±3.5% and 42.0±6.1%
fold more efficient than bicalutamide in inhibiting DHT-induced PSA expression [18]: around 10 fold
Bound fraction [6]: 89.3%
inhibition of CYP 3A4 activity [19]: doesn`t inhibit
steady-state reached after [20]: 10 administrations
inhibition of CYP 2C9 activity [21]: doesn`t inhibit
